Measurements as given in ChEMBL document CHEMBL1138545, “Synthesis and antimicrobial activities of some new triazolothiadiazoles bearing 4-methylthiobenzyl moiety” (2009).
Values after ≈ are worked out from the molar mass of the structure shown.

What was measured:
Format in all cases: functional
[1] = test system: Aspergillus fumigatus; assay: Antifungal activity against Aspergillus fumigatus NICM 902 after 3 to days by serial plate dilution method; conditions: for MIC: Aspergillus fumigatus, NICM 902
[2] = test system: Pseudomonas aeruginosa; assay: Antibacterial activity against Pseudomonas aeruginosa ATTC 27853 after 24 hrs by the disk diffusion method; conditions: for MIC: Pseudomonas aeruginosa, ATTC 27853, 24 h
[3] = test system: Trichophyton mentagrophytes; assay: Antifungal activity against Trichophyton mentagrophytes after 3 to days by serial plate dilution method; conditions: for MIC: Trichophyton mentagrophytes
[4] = test system: Escherichia coli; assay: Antibacterial activity against Escherichia coli ATTC 25922 after 24 hrs by the disk diffusion method; conditions: for MIC: Escherichia coli, ATTC 25922, 24 h
[5] = test system: Klebsiella pneumoniae; assay: Antibacterial activity against Klebsiella pneumoniae after 24 hrs by the disk diffusion method; conditions: for MIC: Klebsiella pneumoniae, 24 h
[6] = test system: Candida albicans; assay: Antifungal activity against Candida albicans NICM 300 after 3 to days by serial plate dilution method; conditions: for MIC: Candida albicans, NICM 300
[7] = test system: Aspergillus flavus; assay: Antifungal activity against Aspergillus flavus NICM 524 after 3 to days by serial plate dilution method; conditions: for MIC: Aspergillus flavus, NICM 524
[8] = test system: Staphylococcus aureus; assay: Antibacterial activity against Staphylococcus aureus ATTC […] after 24 hrs by the disk diffusion method; conditions: for MIC: Staphylococcus aureus, 24 h

Compound | MIC [1] [µg/mL] | MIC [2] [µg/mL] | MIC [3] [µg/mL] | MIC [4] [µg/mL] | MIC [5] [µg/mL] | MIC [6] [µg/mL] | MIC [7] [µg/mL] | MIC [8] [µg/mL] | diameter of the inhibition zone (DIZ) [1] [mm] | inhibition zone (IZ) [2] [mm] | diameter of the inhibition zone (DIZ) [3] [mm] | inhibition zone (IZ) [4] [mm] | inhibition zone (IZ) [5] [mm] | diameter of the inhibition zone (DIZ) [6] [mm] | diameter of the inhibition zone (DIZ) [7] [mm] | inhibition zone (IZ) [8] [mm]
COc1ccc(-c2ccc(-c3nn4c(Cc5ccc(SC)cc5)nnc4s3)o2)c([N+](=O)[O-])c1 | 12.5 (≈ 26.1 µM) | 25 (≈ 52.1 µM) | 25 (≈ 52.1 µM) | 25 (≈ 52.1 µM) | 6 (≈ 12.5 µM) | 25 (≈ 52.1 µM) | 25 (≈ 52.1 µM) | 25 (≈ 52.1 µM) | 19 | 12 | 15 | 13 | 21 | 17 | 12 | 12
CSc1ccc(Cc2nnc3sc(-c4ccc(-c5ccc(C)cc5)o4)nn23)cc1 | 12.5 (≈ 29.9 µM) | 6 (≈ 14.3 µM) | 12.5 (≈ 29.9 µM) | 6 (≈ 14.3 µM) | 6 (≈ 14.3 µM) | 25 (≈ 59.7 µM) | 25 (≈ 59.7 µM) | 12.5 (≈ 29.9 µM) | 21 | 18 | 17 | 18 | 23 | 14 | 11 | 18
CSc1ccc(Cc2nnc3sc(-c4ccc(F)cc4)nn23)cc1 | 12.5 (≈ 35.1 µM) | 12.5 (≈ 35.1 µM) | 12.5 (≈ 35.1 µM) | 12.5 (≈ 35.1 µM) | 6 (≈ 16.8 µM) | 25 (≈ 70.1 µM) | 12.5 (≈ 35.1 µM) | 12.5 (≈ 35.1 µM) | 19 | 17 | 17 | 19 | 25 | 10 | 16 | 18
CSc1ccc(Cc2nnc3sc(-c4cc(Cl)ccc4Cl)nn23)cc1 | 25 (≈ 61.4 µM) | 25 (≈ 61.4 µM) | 25 (≈ 61.4 µM) | 25 (≈ 61.4 µM) | 25 (≈ 61.4 µM) | 25 (≈ 61.4 µM) | 25 (≈ 61.4 µM) | 25 (≈ 61.4 µM) | 11 | 10 | 13 | 12 | 13 | 15 | 11 | 15
CSc1ccc(Cc2nnc3sc(-c4ccc(Cl)c(Cl)c4Cl)nn23)cc1 | 25 (≈ 56.6 µM) | 12.5 (≈ 28.3 µM) | 25 (≈ 56.6 µM) | 12.5 (≈ 28.3 µM) | 6 (≈ 13.6 µM) | 25 (≈ 56.6 µM) | 25 (≈ 56.6 µM) | 12.5 (≈ 28.3 µM) | 13 | 17 | 17 | 19 | 24 | 10 | 15 | 18
CSc1ccc(Cc2nnc3sc(-c4ccc(-c5ccc([N+](=O)[O-])cc5)o4)nn23)cc1 | 25 (≈ 55.6 µM) | 25 (≈ 55.6 µM) | 25 (≈ 55.6 µM) | 25 (≈ 55.6 µM) | 12.5 (≈ 27.8 µM) | 12.5 (≈ 27.8 µM) | 25 (≈ 55.6 µM) | 25 (≈ 55.6 µM) | 14 | 10 | 11 | 17 | 20 | 17 | 11 | 16
CSc1ccc(Cc2nnc3sc(-c4ccc(-c5cc(Cl)c(Cl)cc5Cl)o4)nn23)cc1 | 25 (≈ 49.2 µM) | 25 (≈ 49.2 µM) | 25 (≈ 49.2 µM) | 25 (≈ 49.2 µM) | 25 (≈ 49.2 µM) | 25 (≈ 49.2 µM) | 12.5 (≈ 24.6 µM) | 25 (≈ 49.2 µM) | 12 | 10 | 17 | 12 | 10 | 12 | 17 | 13
CSc1ccc(Cc2nnc3sc(Cc4ccccc4)nn23)cc1 | 25 (≈ 70.9 µM) | 25 (≈ 70.9 µM) | 25 (≈ 70.9 µM) | 25 (≈ 70.9 µM) | 25 (≈ 70.9 µM) | 6 (≈ 17 µM) | 25 (≈ 70.9 µM) | 25 (≈ 70.9 µM) | 13 | 15 | 12 | 11 | 14 | 17 | 10 | 11
CSc1ccc(Cc2nnc3sc(-c4cc(F)c(Cl)cc4Cl)nn23)cc1 | 6 (≈ 14.1 µM) | 12.5 (≈ 29.4 µM) | 6 (≈ 14.1 µM) | 6 (≈ 14.1 µM) | 6 (≈ 14.1 µM) | 6 (≈ 14.1 µM) | 6 (≈ 14.1 µM) | 12.5 (≈ 29.4 µM) | 21 | 17 | 19 | 20 | 23 | 20 | 18 | 19
Cc1cc(C2CCCCC2)n(O)c(=O)c1.NCCO [CICLOPIROX OLAMINE] | 6 |  | 6 |  |  | 6 | 12.5 |  | 22 |  | 20 |  |  | 20 | 18 | 

Further compounds by falling MIC [1], results first:

MIC [1] [µg/mL] | MIC [2] [µg/mL] | MIC [3] [µg/mL] | MIC [4] [µg/mL] | MIC [5] [µg/mL] | MIC [6] [µg/mL] | MIC [7] [µg/mL] | MIC [8] [µg/mL] | Compound | diameter of the inhibition zone (DIZ) [1] [mm] | inhibition zone (IZ) [2] [mm] | diameter of the inhibition zone (DIZ) [3] [mm] | inhibition zone (IZ) [4] [mm] | inhibition zone (IZ) [5] [mm] | diameter of the inhibition zone (DIZ) [6] [mm] | diameter of the inhibition zone (DIZ) [7] [mm] | inhibition zone (IZ) [8] [mm]
6 (≈ 14.4 µM) | 12.5 (≈ 29.9 µM) | 6 (≈ 14.4 µM) | 12.5 (≈ 29.9 µM) | 6 (≈ 14.4 µM) | 6 (≈ 14.4 µM) | 12.5 (≈ 29.9 µM) | 12.5 (≈ 29.9 µM) | CSc1ccc(Cc2nnc3sc(-c4ccc([N+](=O)[O-])cc4Cl)nn23)cc1 | 22 | 17 | 19 | 18 | 23 | 20 | 17 | 19
6 (≈ 12.7 µM) | 6 (≈ 12.7 µM) | 6 (≈ 12.7 µM) | 12.5 (≈ 26.5 µM) | 6 (≈ 12.7 µM) | 25 (≈ 52.9 µM) | 25 (≈ 52.9 µM) | 12.5 (≈ 26.5 µM) | CSc1ccc(Cc2nnc3sc(-c4ccc(-c5ccccc5C(F)(F)F)o4)nn23)cc1 | 20 | 18 | 20 | 18 | 25 | 15 | 11 | 19
6 (≈ 12.4 µM) | 6 (≈ 12.4 µM) | 6 (≈ 12.4 µM) | 6 (≈ 12.4 µM) | 6 (≈ 12.4 µM) | 12.5 (≈ 25.8 µM) | 12.5 (≈ 25.8 µM) | 12.5 (≈ 25.8 µM) | CSc1ccc(Cc2nnc3sc(-c4ccc(-c5ccc(Cl)cc5[N+](=O)[O-])o4)nn23)cc1 | 22 | 18 | 17 | 19 | 23 | 18 | 18 | 18
6 (≈ 16.9 µM) | 25 (≈ 70.5 µM) | 6 (≈ 16.9 µM) | 25 (≈ 70.5 µM) | 25 (≈ 70.5 µM) | 6 (≈ 16.9 µM) | 12.5 (≈ 35.3 µM) | 25 (≈ 70.5 µM) | CSc1ccc(Cc2nnc3sc(-c4ccc(O)cc4)nn23)cc1 | 22 | 12 | 18 | 10 | 17 | 20 | 18 | 12
6 (≈ 15.1 µM) | 6 (≈ 15.1 µM) | 6 (≈ 15.1 µM) | 12.5 (≈ 31.4 µM) | 25 (≈ 62.7 µM) | 6 (≈ 15.1 µM) | 25 (≈ 62.7 µM) | 12.5 (≈ 31.4 µM) | CSc1ccc(Cc2nn3c(Cc4ccc(SC)cc4)nnc3s2)cc1 | 22 | 18 | 20 | 16 | 13 | 19 | 17 | 18
6 (≈ 13.8 µM) | 12.5 (≈ 28.8 µM) | 6 (≈ 13.8 µM) | 12.5 (≈ 28.8 µM) | 12.5 (≈ 28.8 µM) | 25 (≈ 57.5 µM) | 12.5 (≈ 28.8 µM) | 25 (≈ 57.5 µM) | COc1ccc(-c2ccc(-c3nn4c(Cc5ccc(SC)cc5)nnc4s3)o2)cc1 | 22 | 17 | 18 | 16 | 18 | 10 | 18 | 14
6 (≈ 12.4 µM) | 25 (≈ 51.7 µM) | 6 (≈ 12.4 µM) | 25 (≈ 51.7 µM) | 25 (≈ 51.7 µM) | 6 (≈ 12.4 µM) | 12.5 (≈ 25.9 µM) | 25 (≈ 51.7 µM) | CSc1ccc(Cc2nnc3sc(-c4ccc(-c5ccc(Br)cc5)o4)nn23)cc1 | 20 | 11 | 20 | 11 | 15 | 18 | 17 | 12
